According to patent US20260008784A1 (VASTHERA CO., LTD., priority 2022, published 2026):
Where two headings read alike, the source gives them in different places. Values belong to the compound of their own block, whether it stands above or below them.

Columns and labels:
[1] = Cytotoxicity assay (WST-1), smooth muscle cell; details: human, human aortic smooth muscle cells (HASMC)
Experimental: (§6) For cytotoxicity analysis, human aortic endothelial cells (HAEC) and smooth muscle cells (HASMC) were seeded in a 96-well culture plate at density of 4000 cells/well in a final volume of 100 μL. Cells were cultured for 24 h and serum-starved for an additional 18 h. Test compounds were serially diluted with EBM-2 culture medium, added to the plate at 100 μL/well, and further incubated for 24 h. The number of viable cells was measured using the WST-1 cell viability assay kit (Roche Diagnostics, USA). Cell number was expressed as absorbance values at 450 nm after subtracting the turbidity value at 600 nm. The absorbance values from three replicate wells were averaged.
(§7) After treatment with ascending concentrations of each compound, the concentration of test compound corresponding to 50% cell viability (CC50) was measured.

[2] = tested on: yeast thioredoxin (Trx)/yeast Trx reductase (TR); experiment: Peroxidase activity assay (H2O2 reduction, NADPH oxidation); assay type: biochemical; details: 50 μM test compound, 3 μM yeast Trx, 1.5 μM yeast TR, 250 μM NADPH, 1.2 mM H2O2, 30° C.; NADPH oxidized per minute
Experimental: Hydrogen peroxide (H2O2)-reducing peroxidase activity of compounds in present invention was performed as follows. Peroxyredoxin activity was measured in reaction mixture (200 μL volume) containing 50 mM HEPES buffer (pH 7.0), 1 mM EDTA, 250 μM NADPH, 3 μM yeast thioredoxin (Trx), 1.5 μM yeast Trx reductase (TR), 50 μM test compound, and 1.2 mM H2O2.
Reaction was initiated by adding H2O2 and the decrease in absorbance at 340 nm was measured using Agilent UV8453 spectrophotometry (Hewlett Packard, USA) at 30° C. for 12 min. Initial reaction rate is the amount of NADPH oxidized per minute calculated from slope of the linear part of curve.
The H2O2-reducing peroxidase activity of the test compounds in present invention was measured in a reaction mixture containing thioredoxin (Trx)/thioredoxin reductase (TR), respectively.

[3] = reference potential values of Trx and GSH for comparison; cited from earlier work
[4] = tested on: Tyr 857 phosphorylation of PDGF receptor-β (PDGFRβ) in HASMC; experiment: Immunoblot of PDGF-mediated signaling in PrxII knock-down HASMC; assay type: cell-based, human; details: HASMC depleted of PrxII expression, FIG. 2
Experimental: (§1) Cells were quickly washed in ice-cold phosphate-buffered saline (PBS) and lysed in extraction buffer containing 20 mM Hepes (pH 7.0), 1% Triton X-100, 150 mM NaCl, 10% glycerol, 1 mM EDTA, 2 mM EGTA, and 1 mM DTT, 5 mM Na3VO4, 5 mM NaF, 1 mM AEBSF, aprotinin (5 μg/mL), and leupeptin (5 μg/mL). After cen-trifugation at 12,000×g, the clarified cell extracts were used for immunoblotting. For re-blotting, the immunoblots were retrieved in a solution of 67 mM Tris (pH 6.7), 2% SDS, and 100 mM 2-mercaptoethanol at 60° C. for 30 min to remove antibodies and rinsed three times with a Tris-buffered saline (TBS) solution containing 1% Triton X-100. The retrieved membranes were subjected to new immunoblotting.
In human aortic smooth muscle cell (HASMC) and human pulmonary artery smooth muscle cell (PASMC) in which PrxII was knocked out by transfecting the PrxII siRNA, the ability of test compounds to replace the cellular function of PrxII was evaluated. That is, the efficacy of the new compounds was verified in terms of signaling pathways induced by PDGF that regulates the growth and migration of vascular smooth muscle cells in the aorta and pulmonary artery. Activation of PDGF-induced signaling pathway was analyzed by an immunoblot method using an antibody that specifically recognizes phosphorylation of Tyr 857, which is a major phosphorylation site on PDGF receptor (PDGFRβ).

in vitro [5] = details: human
Experimental: as §6, §7

[6] = tested on: human pulmonary artery smooth muscle cell (PASMC); experiment: PDGF-induced proliferation assay, PASMC (PrxII siRNA); assay type: cell-based; details: for Degree of PASMC proliferation: PDGF-BB 25 ng/mL, percent of untreated control
Experimental: (§2) HASMCs and PASMCs were transfected with a PrxII-specific siRNA using RNAi MAX transfection reagent according to manufacturer's protocol. After 24 hours, transfected cells (3,000 cells/well) were seeded in a 96-well culture plate. At 12 h after seeding, cells were serum-starved for additional 18 h in SmBM basal medium containing 0.5% FBS. Test compounds were serially diluted with the same basal medium containing 0.5% FBS, added to the cells ([…]), and incubated for 2 h. After treatment, cells were placed in fresh SmBM medium containing 0.5% FBS and PDGF-BB (25 ng/mL) for growth factor stimulation and further cultured for 24 h.
(§3) The degree of cell proliferation was measured using the Cell Titer-GLO kit ([…]). Data are the percent of luminescence intensity averaged from three replicate wells versus that of untreated control group.
(§4) In human aortic smooth muscle cell (HASMC) and human pulmonary artery smooth muscle cell (PASMC) in which PrxII was knocked out by transfecting the PrxII siRNA, the ability of test compounds to inhibit the PDGF-induced proliferation of vascular smooth muscle cells was evaluated. In Table 6, the degree of proliferation in the compound-treated groups is expressed as percent of the degree of proliferation in untreated control group. The concentrations of test compounds corresponding to 50% growth inhibition (IC50) is also listed.

[7] = tested on: human pulmonary artery endothelial cell (PAEC); experiment: VEGF-induced proliferation assay, PAEC (PrxII siRNA); assay type: cell-based; details: for Degree of PAEC proliferation: VEGF-A 25 ng/mL, percent of untreated control
Experimental: as §2, with “HAECs” for “HASMCs”, “PAECs” for “PASMCs”, “EBM” for “SmBM”, “VEGF-A” for “PDGF-BB”
as §3
(§5) In human aortic endothelial cell (HAEC) and human pulmonary artery endothelial cell (PAEC) in which PrxII was knocked out by transfecting the PrxII siRNA, the ability of test compounds to augment the VEGF-induced proliferation of vascular endothelial cells was evaluated. In Table 7, the degree of proliferation in the compound-treated groups is expressed as percent of the degree of proliferation in untreated control group. The effective concentrations of test compounds increasing cell proliferation by 50% (EC50) is also listed.

[8] = tested on: human aortic smooth muscle cell (HASMC); experiment: PDGF-induced proliferation assay, HASMC (PrxII siRNA); assay type: cell-based; details: for Degree of HASMC proliferation: PDGF-BB 25 ng/mL, percent of untreated control
Experimental: as §2, §3, §4

in vitro [9] = experiment: in vitro
Experimental: (§8) Cytotoxicity tests were performed against vascular endothelial cells, vascular smooth muscle cells and hepatocytes. After treatment with ascending concentrations of each compound, the concentration of test compound corresponding to 50% cell viability (CC50) was measured.

[10] = tested on: Tyr 1175 phosphorylation of VEGF receptor-2 (VEGFR2) in HAEC; experiment: Immunoblot of VEGF-mediated signaling in PrxII knock-down HAEC; assay type: cell-based, human; details: HAECs depleted of PrxII expression, FIG. 5
Experimental: as §1
In human aortic endothelial cell (HAEC) and human pulmonary artery endothelial cell (PAEC) in which PrxII was knocked out by transfecting the PrxII siRNA, the ability of test compounds to replace the cellular function of PrxII was evaluated. That is, the efficacy of the new compounds was verified in terms of signaling pathways induced by VEGF that regulates the growth and migration of vascular endothelial cells in the aorta and pulmonary artery. Activation of VEGF-induced signaling pathway was analyzed by an immunoblot method using an antibody that specifically recognizes phosphorylation of Tyr 1175, which is a major phosphorylation site on VEGF receptor-2 (VEGFR2).

[11] = tested on: human aortic endothelial cell (HAEC); experiment: VEGF-induced proliferation assay, HAEC (PrxII siRNA); assay type: cell-based; details: for Degree of HAEC proliferation: VEGF-A 25 ng/mL, percent of untreated control
Experimental: as §2, with “HAECs” for “HASMCs”, “PAECs” for “PASMCs”, “EBM” for “SmBM”, “VEGF-A” for “PDGF-BB”
as §3, §5

in vitro [12] = details: human; remark: listed apart in the source
Experimental: as §6, §7

[13] = Measurement of redox potential (DTT redox buffers, HPLC); assay type: physicochemical; details: DTT(Red)/DTT(Ox) redox buffers, 3 h, 30° C., 50% reduction of test compound
Experimental: A test compound (10 mM) was diluted 20-fold with each redox buffer solution and incubated for 3 h in a 30° C. water bath. Then, compounds were analyzed by HPLC. The area of peaks corresponding to the oxidized and reduced forms of test compound based on specific retention time was calculated and plotted as percent of total peak area against the Nernst equation value (mV) at x-axis. The Nernst equation value corresponding to 50% reduction of test compound was set as the midpoint redox potential value for test compound.
The redox potential values of the test compounds were analyzed based on the potential values established in redox buffer solutions where reduced and oxidized DTT are mixed at various ratios.

[14] = tested on: human aortic smooth muscle cells (HASMC); experiment: Cytotoxicity assay (WST-1), smooth muscle cell; details: read-out: Cell cytotoxicity (CC50) Smooth muscle cell; 24 h, concentration corresponding to 50% cell viability
Experimental: as §6, §7

hepatocytes = experiment: Cytotoxicity test, liver cell; details: read-out: Cell cytotoxicity (CC50) Liver cell; concentration corresponding to 50% cell viability
Experimental: as §8

[15] = tested on: human aortic endothelial cells (HAEC); experiment: Cytotoxicity assay (WST-1), endothelial cell; details: read-out: Cell cytotoxicity (CC50) Endothelial cell; 24 h, concentration corresponding to 50% cell viability
Experimental: as §6, §7

[16] = Cytotoxicity test, liver cell; details: hepatocytes
Experimental: as §8

[17] = Cytotoxicity assay (WST-1), endothelial cell; details: human, human aortic endothelial cells (HAEC)
Experimental: as §6, §7

[18] = Homo sapiens, Endothelial cell, effective concentration increasing cell proliferation by 50%, VEGF-stimulated

Peroxidase activity for H2O2 reduction [2]: 4.78 nmol/min
Compound: CN1C(=O)C2CSSC1(C)C(=O)N2Cc1cccs1 (stereo not drawn) [Compound 14, 1,8-dimethyl-6-(thiophen-2-ylmethyl)-2,3-dithia-6,8-diazabicyclo[3.2.2]nonane-7,9-dione]
CC50 at 24 h [1]: > 500 µM

Compound: thioredoxin [Trx]
Midpoint redox potential (E m) [3]: −270 mV

Compound: CN1CCN2C(=O)C3CSSC2(C1)C(=O)N3C (stereo not drawn) [Compound 23]
Effect on phosphorylation of Tyr 857 on PDGFR [4]: strongly abolish the phosphorylation
CC50 (in vitro [5]): > 500 µM
Degree of PASMC proliferation ([6]; 2.5 nM): 70.8%
Degree of PASMC proliferation ([6]; 5 nM): 43.3%
Degree of PASMC proliferation ([6]; 10 nM): 32.9%
Degree of PASMC proliferation ([6]; 25 nM): 14.6%
Degree of PASMC proliferation ([6]; 50 nM): 3.2%
Degree of PASMC proliferation ([6]; 100 nM): 0.0%
IC50 ([6]; Homo sapiens, PASMC, 50% growth inhibition, PDGF-stimulated): 0.00476 µM
Degree of PAEC proliferation ([7]; 2.5 nM): 109.2%
Degree of PAEC proliferation ([7]; 5 nM): 122.9%
Degree of PAEC proliferation ([7]; 10 nM): 148.3%
Degree of PAEC proliferation ([7]; 25 nM): 173.3%
Degree of PAEC proliferation ([7]; 50 nM): 155.3%
Degree of PAEC proliferation ([7]; 100 nM): 133.9%
EC50 [7, 18]: 0.0052 µM
Degree of HASMC proliferation ([8]; 2.5 nM): 89.8%
Degree of HASMC proliferation ([8]; 5 nM): 54.3%
Degree of HASMC proliferation ([8]; 10 nM): 34.4%
Degree of HASMC proliferation ([8]; 25 nM): 20.4%
IC50 ([8]; Homo sapiens, HASMC, 50% growth inhibition, PDGF-stimulated): 0.00685 µM
CC50 (in vitro [9]): 123 µM
Peroxidase activity for H2O2 reduction [2]: 8.81 nmol/min
Effect on phosphorylation of Tyr 1175 on VEGFR2 [10]: strongly abolish the phosphorylation
Degree of HAEC proliferation ([11]; 2.5 nM): 109.4%
Degree of HAEC proliferation ([11]; 5 nM): 122.6%
Degree of HAEC proliferation ([11]; 10 nM): 161.3%
Degree of HAEC proliferation ([11]; 25 nM): 187.6%
Degree of HAEC proliferation ([11]; 50 nM): 177.1%
Degree of HAEC proliferation ([11]; 100 nM): 133.0%
EC50 [11, 18]: 0.00972 µM

Compound: CN1C(=O)C2(Cc3ccccc3)SSCC1C(=O)N2C (stereo not drawn) [Compound 19, 1-benzyl-6,8-dimethyl-2,3-dithia-6,8-diazabicyclo[3.2.2]nonane-7,9-dione]
Effect on phosphorylation of Tyr 857 on PDGFR [4]: strongly abolish the phosphorylation
CC50 (in vitro [5]): > 500 µM
CC50 (in vitro [9]): > 500 µM
Peroxidase activity for H2O2 reduction [2]: 5.69 nmol/min
CC50 (in vitro [12]): > 500 µM

Compound: O=C1C2CSSC3(CCCN13)C(=O)N2Cc1ccccc1 (stereo not drawn) [Compound 7, 11-benzyltetrahydro-5H,7H-4,9a-(epiminomethano)pyrrolo[2,1-c][1,2,4]dithiazepine-5,10-dione]
Midpoint redox potential (E m) [13]: −300.98 mV
CC50 [14]: > 500 µM
CC50 (hepatocytes): > 500 µM
Peroxidase activity for H2O2 reduction [2]: 3.83 nmol/min
CC50 [15]: > 500 µM

Compound: N[C@@H](CCC(=O)N[C@@H](CS)C(=O)NCC(=O)O)C(=O)O [GSH]
Midpoint redox potential (E m) [3]: −240 mV

Compound: CN1C(=O)C2CSSC1(C)C(=O)N2Cc1nc2ccccc2s1 (stereo not drawn) [Compound 15, 6-(benzo[d]thiazol-2-ylmethyl)-1,8-dimethyl-2,3-dithia-6,8-diazabicyclo[3.2.2]nonane-7,9-dione]
CC50 at 24 h [1]: 98.5 µM
CC50 [16]: 157 µM
CC50 at 24 h [17]: 114 µM
